# According to ChEMBL document CHEMBL1128874 (Bioorg Med Chem Lett, 1995):
# Experiment: Antagonism of calmodulin dependent cAMP Phosphodiesterase
# Format: functional
row,IC50 [nM],SMILES
1,5000,CC/C(=C(\c1ccc(I)cc1)c1ccc(OCCN2CCCC2)cc1)c1ccc(I)cc1
2,1800,CC/C(=C(\c1ccc(I)cc1)c1ccc(OCCN2CCCC2)cc1)c1ccc(O)cc1
3,2600,CC/C(=C(\c1ccc(I)cc1)c1ccc(OCCN2CCCC2)cc1)c1ccc(N)cc1
4,2200,CC/C(=C(/c1ccc(I)cc1)c1ccc(OCCN2CCCC2)cc1)c1ccc(O)cc1
5,1500,CC/C(=C(\c1ccc(I)cc1)c1ccc(OCCN2CCCC2)cc1)c1ccccc1 [IDOXIFENE]
